From PubChem BioAssay AID1996
Converted amounts (≈) assume the structure as drawn.

Conditions: buffer; pH 7.4; 200.0 µM

Compound | solubility kinetic
N#Cc1ccc(NC(=O)CN2C(=O)NC3(CCCC3)C2=O)cc1 | > 46.8 µg/mL
Cc1ccccc1NC(=O)C[n+]1cc(-c2ccccc2)n2c1CCC2.[Cl-] | > 55.2 µg/mL
COc1ccccc1C(C)NC(=O)Cc1ccsc1 (centres undefined) | > 41.3 µg/mL
CN(C)S(=O)(=O)c1ccc(C(=O)OCC(=O)N2CC3(C)CC2CC(C)(C)C3)cc1 (centres undefined) | > 63.4 µg/mL
Cc1ccc(OCCn2ccnc2)c(C)c1 | 22.8 µg/mL (≈ 105 µM)
Cc1cccc(NC(=O)c2nc[nH]c2C(=O)Nc2cccc(C)c2)c1 | 0.2 µg/mL (≈ 0.598 µM)
O=C(O)CNC(=S)N(Cc1ccccc1)Cc1ccccc1F | 47.4 µg/mL (≈ 143 µM)
O=C(NCCN1CCCCC1)Nc1ccc(Br)cc1 | 48.4 µg/mL (≈ 148 µM)
O=C(CNC(=O)c1ccc(Br)cc1)NCc1cccnc1 | 49.3 µg/mL (≈ 142 µM)
CCNC(=O)C12CCC(C)(C(=O)O1)C2(C)C (centres undefined) | 31.8 µg/mL (≈ 141 µM)
Cn1c(SCC(=O)Nc2nccs2)nnc1C1CC1 | > 44.3 µg/mL
O=C(O)c1ccc(NC(=S)NCc2ccccc2)cc1 | > 43 µg/mL
O=C(CCC(=O)c1ccc(Cl)s1)Nc1ncccc1O | > 46.6 µg/mL
NC(=O)C1CC(=O)N(CCc2ccc(F)cc2)C1 (centres undefined) | > 37.5 µg/mL
NC1=NC(=O)/C(=C\c2ccco2)S1 | > 29.1 µg/mL
COc1cc2c(cc1OC)CN(c1ccc(C(F)(F)F)cn1)CC2 | 34.9 µg/mL (≈ 103 µM)
Br.CCCN(CCC)C1CCc2cccc(O)c2C1 (centres undefined) | > 49.2 µg/mL
O=C(CN1C(=O)NC2(CCCC2)C1=O)N1CCN(c2ccccc2O)CC1 | > 55.9 µg/mL
Cc1cc(C)c(C)c(S(=O)(=O)NC2CCCCC2)c1C | < 0.6 µg/mL
CCc1ccc(C(C)NC(=O)C2CCCC2)cc1 (centres undefined) | 18.8 µg/mL (≈ 76.6 µM)
N#CCOC(=O)c1c2c(nc3ccccc13)CCC2 | 30.1 µg/mL (≈ 119 µM)
Cc1ccc(NC2(C#N)C(=O)Nc3ccccc32)cc1C (centres undefined) | 23.3 µg/mL (≈ 84 µM)

Compound | solubility kinetic
NC(=O)CCn1ccc2ccccc21 | > 28.2 µg/mL
Nc1ccc(-c2nc3cc([N+](=O)[O-])ccc3o2)cc1 | 1.1 µg/mL (≈ 4.31 µM)
O=S(=O)(NCCCCNS(=O)(=O)c1ccc(F)cc1)c1ccc(F)cc1 | 0.7 µg/mL (≈ 1.73 µM)
COc1ccc(C(NC(=O)CC(C)C)c2c(O)ccc3ccccc23)cc1 (centres undefined) | < 0.8 µg/mL
Cc1ccc(C(=O)OCC(=O)N2c3ccccc3NC(=O)C2(C)C)cc1S(=O)(=O)N1CCCCC1 | 3.6 µg/mL (≈ 7.21 µM)
C/C(=N/O)c1cccc(N2Cc3ccccc3C2)c1 | 22.2 µg/mL (≈ 88 µM)
CCCCC(C(=O)NC(C)c1ccccc1)C(=O)NC(C)c1ccccc1 (centres undefined) | 1.5 µg/mL (≈ 4.09 µM)
Cc1ccc(N2C(=O)CS/C2=N\C(=S)Nc2ccccc2)cc1 | 1 µg/mL (≈ 2.93 µM)
CC(=O)c1csc(COc2ccccc2)n1 | 27.3 µg/mL (≈ 117 µM)
O=C(CCSc1nc2ccccc2o1)Nc1ccccc1 | 4.2 µg/mL (≈ 14.1 µM)
O=C(CCC1CCN(Cc2ccc(Cl)cc2)CC1)NC1CC1 | 41.3 µg/mL (≈ 129 µM)
COc1ccc(NC(=S)NC23CN4CN(CN(C4)C2)C3)c(OC)c1 | > 52.4 µg/mL
Cc1cc(C)n2nc(SC(C)C(=O)N(C)C3CCCCC3)nc2n1 (centres undefined) | > 52.1 µg/mL
CCC(=O)c1ccc2c(c1)N(CCCN(C)C)c1ccccc1S2.Cl | > 56.5 µg/mL
CN1CCC(N(C)C(=O)c2cccc(S(=O)(=O)N3CCc4ccccc43)c2)CC1 | > 62 µg/mL
CN=C(N)NC(=O)Nc1c(C)cccc1C.Cl | > 38.5 µg/mL
CC(C)c1ccc(N(C)C(=O)Cc2c(C(=O)O)n(C)c3ccccc23)cc1 | > 54.7 µg/mL
O=C(NCC1CCN(S(=O)(=O)c2ccccc2)CC1)Nc1ccccc1 | 3.6 µg/mL (≈ 9.64 µM)
COc1ccc(C(=O)CNc2ccccc2Br)cc1 | 5.6 µg/mL (≈ 17.5 µM)
COc1cccc2[nH]c(=O)c(-c3ccccc3)cc12 | 1.4 µg/mL (≈ 5.57 µM)
CC(C)S(=O)(=O)c1cnc(N2CCOCC2)nc1N | > 43 µg/mL
COc1ccc(NC(=S)NCCCN2CCCC2)cc1Cl | > 49.2 µg/mL

Compound | solubility kinetic
Cc1ccc(OC(C)C(=O)Nc2ccc(Cl)cn2)c([N+](=O)[O-])n1 (centres undefined) | 18.7 µg/mL (≈ 55.5 µM)
O=c1nccc(N/N=C/c2cccc(O)c2)[nH]1 | > 34.5 µg/mL
O=C(C1CCC(=O)N1Cc1cccs1)N1CCOCC1 (centres undefined) | > 44.2 µg/mL
O=C(COc1ccc(Cl)cc1)NCc1ccncc1 | > 41.5 µg/mL
COc1cc(C(=O)NC23CC4CC(CC(C4)C2)C3)cc(OC)c1OC | < 0.7 µg/mL
O=[N+]([O-])c1cc(S(=O)(=O)NC2=NCCCCC2)ccc1Cl | 39 µg/mL (≈ 118 µM)
COc1nc(C)cc(C)c1S(=O)(=O)c1ccccc1 | 41.3 µg/mL (≈ 149 µM)
Nc1cccnc1Oc1ccc(F)cc1 | 28.8 µg/mL (≈ 141 µM)
Cc1cc(C(=O)CN2C(=O)C(=O)N(CCC3=CCCCC3)C2=O)c(C)n1C | 11.5 µg/mL (≈ 31 µM)
Cc1cccc(C)c1NC(=O)c1c(O)c2ccccc2[nH]c1=O | 0.5 µg/mL (≈ 1.62 µM)
CC(Sc1ccc(S(=O)(=O)N2CCOCC2)cn1)c1ccccc1Cl (centres undefined) | 5.9 µg/mL (≈ 14.8 µM)
CC1SCC(=NOCc2c(Cl)cccc2Cl)CS1 (centres undefined) | < 0.7 µg/mL
CCOC(=O)c1cc(-c2csc(-c3cccc(Cl)c3)n2)on1 | < 0.4 µg/mL
COc1cc(C(=O)N2CCN(C3CCCCC3)CC2)cc(OC)c1OC.O=C(O)C(=O)O | > 67.9 µg/mL
CCOc1cccc(C(=O)NC(=S)Nc2ccc3c(c2)OCCO3)c1 | 4 µg/mL (≈ 11.2 µM)
CN(Cc1c(F)cccc1Cl)C(=O)c1cc2ccccc2o1 | 12.3 µg/mL (≈ 38.7 µM)
COC(=O)C1=C(C)NC(C)=C(C(=O)OC)C1c1ccco1 | 21.9 µg/mL (≈ 75.2 µM)
Cc1nc2ccccn2c1C(=O)C(=O)Nc1cc(F)ccc1F | 4 µg/mL (≈ 12.7 µM)
Cc1ccc(C(=O)N2CCN(c3ccccn3)CC2)cc1C | > 44.3 µg/mL
NS(=O)(=O)c1ccc(CCNC(=O)c2ccco2)cc1 | > 44.1 µg/mL
O=C(Cc1ccc(Cl)cc1)Nc1ccc(Cl)cn1 | 3.1 µg/mL (≈ 11 µM)

Further lines, results first:

solubility kinetic | Compound
34.8 µg/mL (≈ 144 µM) | N/C(=N\OC(=O)c1ccccc1)c1ccncc1
3.2 µg/mL (≈ 5.57 µM) | COc1ccc(NS(=O)(=O)c2cc(NC(=O)c3ccc(S(=O)(=O)N(C)C)cc3)ccc2N2CCOCC2)cc1
19.8 µg/mL (≈ 81.4 µM) | O=C(/C=C/c1cccnc1)c1cc(F)ccc1O
40.3 µg/mL (≈ 142 µM) | COc1ccccc1N1CCN(c2nccc(C)n2)CC1
> 63.1 µg/mL | COc1c(C)cc(C(=O)C2CCCN(C(=O)c3cc4nc(C)cc(C)n4n3)C2)cc1C (centres undefined)
> 40.1 µg/mL | COc1cc(OC)cc(N2C(=O)CSCC2=O)c1
16.6 µg/mL (≈ 51.5 µM) | COc1ccc(C(=O)Nc2cccc3nc(C)ccc23)cc1OC
< 0.2 µg/mL | Cc1ccc(C)c(Nc2nc(-c3ccncc3)nc3ccccc23)c1
< 0.4 µg/mL | COc1cc(C)c(S(=O)(=O)NOCc2ccc([N+](=O)[O-])cc2)c(C)c1C
43.9 µg/mL (≈ 137 µM) | CCOC(=O)N1CCN(c2ccnc3cc(Cl)ccc23)CC1
38 µg/mL (≈ 147 µM) | COc1ccccc1C(C#N)c1cccc(Cl)n1 (centres undefined)
1.4 µg/mL (≈ 5.07 µM) | O=C(NC1CCCCC1)C(=S)NCc1ccccc1
> 40.1 µg/mL | Nc1ncnc2c1ncn2[C@@H]1O[C@H](CO)[C@@H](O)[C@@H]1O
1.3 µg/mL (≈ 4.24 µM) | CC(=O)C(/C=N/c1ncc(C(F)(F)F)cc1Cl)=C(\C)O
> 34.8 µg/mL | N#CC1CCN(c2ncccc2[N+](=O)[O-])CC1
36.2 µg/mL (≈ 130 µM) | CSc1cccc(N2C(=O)C3CCCN3C2=S)c1 (centres undefined)
< 0.4 µg/mL | COc1ccc(NC(=O)c2ccccc2NC(=O)c2cccs2)cc1
23.6 µg/mL (≈ 52.3 µM) | O=C(CCS(=O)(=O)c1ccccc1)Nc1ccc(S(=O)(=O)Nc2nccs2)cc1
43.5 µg/mL (≈ 126 µM) | COC(=O)c1cc(NC(=O)c2cccs2)ccc1N1CCOCC1
< 0.3 µg/mL | COc1ccc([N+](=O)[O-])cc1NC(=O)c1csc(C)c1
> 52.1 µg/mL | COc1ccc(C(=O)OCC(=O)c2ccc(CNC(C)=O)s2)cc1
39.3 µg/mL | Cc1ccc(C)c(OCCCN2CCNCC2)c1.Cl
> 65 µg/mL | CC(NC(=O)C1CCN(C(=O)c2ccc(F)cc2)CC1)c1ccc(S(N)(=O)=O)cc1 (centres undefined)
> 44.9 µg/mL | CC(C(=O)Nc1ccc(C#N)cc1)N(C)Cc1cccs1 (centres undefined)
> 47.8 µg/mL | COc1cccc(C2(O)CCN(CC(=O)NCC3CC3)CC2)c1
16.4 µg/mL (≈ 55.8 µM) | O=C(COC(=O)c1ccco1)NCc1ccc(Cl)cc1
< 0.3 µg/mL | Cc1cc(C)cc(NC(=O)c2cc(C)nc3ccccc23)c1

solubility kinetic | Compound
< 0.3 µg/mL | Clc1ccc(-c2cn3cc(Cl)ccc3n2)cc1
8.1 µg/mL (≈ 25.8 µM) | Cc1cc2ccccn2c1C(=O)c1ccccc1Br
1.6 µg/mL (≈ 5.38 µM) | COc1ccc(/C=C/C(=O)c2cc3c(cc2N)OCO3)cc1
12.2 µg/mL (≈ 112 µM) | Nc1ccncc1N
40.9 µg/mL (≈ 125 µM) | O=C(COC(=O)c1c(F)cccc1Cl)NCC1CCCCC1
0.8 µg/mL (≈ 2.73 µM) | O=C(c1ccccc1F)n1c2c(c3ccccc31)CCCC2
> 66.1 µg/mL | COc1ccc(NC(=O)CN2CCN(C(C)=O)CC2)cc1S(=O)(=O)N1CCOCC1
> 41.2 µg/mL | Nc1ccc(S(=O)(=O)N2CCc3ccccc32)cc1
> 49.8 µg/mL | CC1CC(C)CN(CC(O)COCc2ccccc2F)C1.Cl (centres undefined)
> 40.4 µg/mL | O=C1CC(c2ccccc2)CC(=O)C1=CN1CCCC1 (centres undefined)
2.9 µg/mL (≈ 10.2 µM) | COc1ccc(C(=O)NCCCCc2ccccc2)cc1
> 25.7 µg/mL | NC(=O)c1cccc2ccccc12
33.6 µg/mL (≈ 143 µM) | COc1cccc2sc(/N=C/N(C)C)nc12
7.4 µg/mL (≈ 14.1 µM) | COc1cc(S(=O)(=O)N2CCOCC2)cc(C(=O)NCC(c2cccs2)N2CCOCC2)c1OC (centres undefined)
> 45.9 µg/mL | O=C(NCc1cccnc1)Nc1ccc(Br)cc1
30.7 µg/mL (≈ 78.6 µM) | CC12CCC(=O)N1C(C(=O)N1CCN(c3ccc([N+](=O)[O-])cc3)CC1)CS2 (centres undefined)
36.5 µg/mL (≈ 99 µM) | CC(C)(C)c1cc(CCC(=O)NCc2cccnc2)cc(C(C)(C)C)c1O
> 46.7 µg/mL | O=C(Nc1nnc(-c2cccnc2)o1)c1cccc([N+](=O)[O-])c1
3.2 µg/mL (≈ 10.9 µM) | CC(=O)Nc1ccc(N/C=C/C(=O)c2ccc(C)cc2)cc1
26.2 µg/mL (≈ 82.6 µM) | O=C(O)c1cccc(S(=O)(=O)N2CCc3ccccc3C2)c1
< 0.2 µg/mL | Cc1cccc(Nc2nc(-c3ccc(F)c(C)c3)cs2)n1
> 47.2 µg/mL | CCOC(=O)Cn1cnc2scc(-c3ccccc3)c2c1=O
> 9 µg/mL | NC(N)=O
2 µg/mL (≈ 6.17 µM) | CC(=O)c1c(C)[nH]c(C(=O)Nc2cccc(C(F)(F)F)c2)c1C
17.2 µg/mL (≈ 62.9 µM) | O=C(COC(=O)/C=C/c1ccccc1)NC1CCCC1
> 50 µg/mL | CC(=O)CC(c1ccccc1)S(=O)(=O)c1ccc([N+](=O)[O-])cc1 (centres undefined)
> 53.3 µg/mL | C=C(C)CN(CC)C(=O)CN1C(=O)NC2(CCCc3ccccc32)C1=O (centres undefined)
